Assay results: patent publication US5424185A, “Human high-affinity neurotransmitter uptake system” (Baylor College of Medicine, priority 1990, dated 1995)
Read-outs that look alike come from different tables or passages of the source.

Experiments:
[1] = test system: aspartate/glutamate co-transport system (L-Aspl cells); test: D-[3H]aspartate uptake by L-Aspl cells; type: cell-based, human
Experimental: Kinetic analyses of D-[^3 H] […] Asp. […] Asp uptake.
The specificity of the high-affinity transport mechanism in L-Aspl cells also was examined. […] Asp.
The high-affinity transport system in L-Aspl cells was also analyzed in terms of its relative sensitivity to compounds specific for various subtypes of excitatory amino acid (EAA) receptors.
A series of known inhibitors of high-affinity D-Asp uptake systems (including L-cysteic acid (L-CA), L-cysteine sulfinic acid (L-CSA), aminophosphonoproprionic acid (APPA) and D-threoaspartic acid (THAA)) were also tested for their effects on D-[^3 H] Asp uptake by L-Aspl cells.

[2] = test system: GABA transporter (L-GAB1 cells); test: [3H]GABA uptake by L-GAB1 cells; type: cell-based, human; settings: competitor at 100-fold excess relative to [3H]GABA
Experimental: Using concentrations of [^3 H] GABA ranging from 2 to 500 μM, the kinetic profile of GABA uptake was determined for both L-GAB1 and L-M cells. The initial velocity of GABA uptake was measured and plotted against the corresponding [^3 H] GABA concentration for both cell lines. […] The velocity profile for L-GAB1 cells was subtracted by that of L-M cells, and the resulting data used for a double-reciprocal plot of velocity-^1 against GABA concentration-^1. The velocity profile for L-M cells was also transformed into a double-reciprocal plot.
Several known inhibitors of high-affinity GABA uptake were used to examine their efficacies in inhibiting [^3 H] GABA uptake by L-GAB1 cells. […] Each of these agents was used at several concentrations ranging from 1 to 100 μM in assays of [^3 H] GABA uptake by L-GAB1 cells. […] GABA uptake by L-GAB1 cells.
L-GAB1 cells were also analyzed in terms of their ligand-specificity in the high-affinity GABA uptake mechanism.

[3] = test system: human L-glutamate transporter (L-Glul cells); test: L-[3H]glutamate uptake by L-Glul cells; type: cell-based; settings: unlabelled neurotransmitters, EAA receptor ligands, co-transporter inhibitors
Experimental: Both L-Glul and L-M cells were assessed for their kinetic properties of [^3 H] Glu uptake, and the results were analyzed by fitting to Michaelis-Menten kinetics. This was done by incubating cells with differing concentrations of [^3 H] Glu (ranging from 0.05 to 2 μM) for 10 minutes, at both 37° C. and 0° C. The amount of [^3 H] Glu retained by the cells following incubation was then quantitated and converted (using the manufacturer's specific activity for [^3 H] Glu to the corresponding picomole-equivalent of the radioligand, for each concentration of radioligand at each temperature. Then, the pmol value is normalized by the length of incubation and the amount of protein corresponding to the number of cells assayed. The resulting value, expressed in units of pmol/min/mg protein, is the initial velocity value for each concentration of [^3 H] Glu at each temperature. The initial velocity measured at 37° C. represents total initial velocity; the initial velocity measured at 0° C. represents nonspecific initial velocity. The difference between these two velocity values is then the specific initial velocity, denoted by "V", for each concentration of [^3 H] Glu.
Various drugs specific for excitatory amino acid (EAA) receptor subtypes were assessed for their effects on [^3 H] Glu uptake by L-Glul cells.
Glu uptake by L-Glul cells.

[4] = target: T1, human 5HT transporter (L-S1 cells) (Homo sapiens, UniProt P31645); test: [3H]-5-HT uptake by L-S1 cells; type: cell-based
T1 construct: expressed in transfected cells; host or cells: mouse L-M fibroblasts (ATCC CCL 1.2) transfected with total human genomic DNA and pSV2neo; clone L-S1
Experimental: The cells were incubated at 37° C. for an additional 40 min.
L-S1 and L-M cells were preplated into 96-well culture plates. For uptake assays, the growth medium was removed from each well and the cells rinsed several times with oxygenated Ringer's buffer supplemented with 0.5 mM pargyline and 0.5 mM ascorbate. […] […] […] The cells remaining in the wells were lysed with 1% sodium dodecyl sulphate (SDS) and transferred to counting vials containing 5 ml of ACS scintillant (Amersham), for liquid scintillation spectrometry. For each assay, 6-8 parallel sets of wells were assayed simultaneously.
(§1) Non-specific activity was determined from parallel assays carried out at 0° C. Initial velocities were calculated in terms of pmol/mg protein/min by subtracting velocity values obtained at 0° C. from those obtained at 37° C.
(§2) Cells were assayed in the presence of each inhibitor for 40 minutes at 37° C., washed with Ringer's buffer and prepared for counting as previously described. Five confluent wells were assayed at each inhibitor concentration. The IC50 value for each inhibitor was determined by plotting the percent activity against the logarithm of inhibitor concentration. Measured levels of uptake in the presence of inhibitors were expressed as the percentage of maximal uptake (100 %) in the absence of inhibitor.

[5] = target: T2, human 5HT transporter (L-S2 cells) (Homo sapiens, UniProt P31645); test: [3H]-5-HT uptake by L-S2 cells; type: cell-based
T2 construct: expressed in transfected cells; host or cells: mouse L-M fibroblasts (ATCC CCL 1.2) transfected with total human genomic DNA and pSV2neo; clone L-S2
Experimental: L-S1 and L-M cells were preplated into 96-well culture plates. For uptake assays, the growth medium was removed from each well and the cells rinsed several times with oxygenated Ringer's buffer supplemented with 0.5 mM pargyline and 0.5 mM ascorbate. […] The radioligand was added to a final concentration of 0.1 μM and incubated with the cells at 37° C. for 40 minutes. The incubation mixture was then removed and each well was washed three times at room temperature with Ringer's buffer. The cells remaining in the wells were lysed with 1% sodium dodecyl sulphate (SDS) and transferred to counting vials containing 5 ml of ACS scintillant (Amersham), for liquid scintillation spectrometry. For each assay, 6-8 parallel sets of wells were assayed simultaneously.
as §1, §2

Rat Synaptosomes = settings: literature values; read-out: Representative IC50, Rat Synaptosomes; cited from earlier work
[6] = ligand 10 μM, 10 min preincubation, 0.1 μM [3H]-5HT, 40 min, 37° C. (FIG. 1)

T2 sequence (P31645 whole entry): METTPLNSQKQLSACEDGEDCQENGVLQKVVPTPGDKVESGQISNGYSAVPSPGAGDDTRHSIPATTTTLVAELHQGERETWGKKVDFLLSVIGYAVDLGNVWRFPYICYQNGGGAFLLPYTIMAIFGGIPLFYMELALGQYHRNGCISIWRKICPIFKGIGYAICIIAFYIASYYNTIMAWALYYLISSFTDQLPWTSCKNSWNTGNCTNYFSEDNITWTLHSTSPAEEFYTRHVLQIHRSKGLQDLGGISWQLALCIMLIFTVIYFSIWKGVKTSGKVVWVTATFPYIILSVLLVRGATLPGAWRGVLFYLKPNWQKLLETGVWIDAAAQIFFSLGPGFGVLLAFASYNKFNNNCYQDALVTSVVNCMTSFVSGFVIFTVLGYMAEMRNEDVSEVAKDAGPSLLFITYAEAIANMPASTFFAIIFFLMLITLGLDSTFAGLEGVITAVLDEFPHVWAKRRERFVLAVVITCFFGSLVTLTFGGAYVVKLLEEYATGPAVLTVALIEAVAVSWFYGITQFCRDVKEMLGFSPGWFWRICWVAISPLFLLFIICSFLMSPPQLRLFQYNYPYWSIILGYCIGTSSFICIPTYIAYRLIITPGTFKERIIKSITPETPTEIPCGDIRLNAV
T1 sequence (P31645 whole entry): as above

Compound: NC(=O)CC[C@H](N)C(=O)O [L-glutamine]
- effect on D-[3H]Asp uptake by L-Aspl cells [1]: slight and not statistically significant

Compound: NCCCC[C@H](N)C(=O)O [lysine]
- ligand-specificity of [3H]GABA uptake by L-GAB1 cells [2]: not sensitive

Compound: NC(CS(=O)O)C(=O)O (centres unmarked) [cysteine sulfinate]
- effect on [3H]Glu uptake by L-Glul cells [3]: no effect

Compound: N[C@@H](CCS(=O)(=O)O)C(=O)O [LHCA, L-homocysteic acid]
- effect on D-[3H]Asp uptake by L-Aspl cells [1]: without effect

Compound: N=C(N)NCCC[C@H](N)C(=O)O [L-arginine]
- ligand-specificity of [3H]GABA uptake by L-GAB1 cells [2]: somewhat sensitive

Compound: Cc1onc(O)c1CC(N)C(=O)O [AHMIP, D-amino-3-hydroxy-5-methyl-4-isoxazoneproprionic acid]
- effect on [3H]Glu uptake by L-Glul cells [3]: no inhibitory effect

Compound: NC(CP(=O)(O)O)C(=O)O (centres unmarked) [APPA, aminophosphonoproprionic acid]
- effect on D-[3H]Asp uptake by L-Aspl cells [1]: moderate in inhibitory potency

Compound: N[C@@H](C(=O)O)[C@@H](O)C(=O)O [THAA, D-threoaspartic acid]
- effect on D-[3H]Asp uptake by L-Aspl cells [1]: potent inhibitory effects

Compound: N[C@@H](Cc1c[nH]c2ccccc12)C(=O)O [tryptophan]
- effect of competing ligand on [3H]-5HT uptake, L-S1 [4, 6]: Neither tryptophan, the amino acid precursor of serotonin, nor the amino acid substrates for catecholamine synthesis, phenylalanine and tyrosine, inhibited uptake of 5-HT
- effect of competing ligand on [3H]-5HT uptake, L-S2 [5, 6]: Neither tryptophan, the amino acid precursor of serotonin, nor the amino acid substrates for catecholamine synthesis, phenylalanine and tyrosine, inhibited uptake of 5-HT
- ligand-specificity of [3H]GABA uptake by L-GAB1 cells [2]: not sensitive

Compound: N[C@@H](Cn1oc(=O)[nH]c1=O)C(=O)O [quisqualate]
- effect on [3H]Glu uptake by L-Glul cells [3]: potent inhibitor
- effect on D-[3H]Asp uptake by L-Aspl cells [1]: without effect

Compound: NC(CCCP(=O)(O)O)C(=O)O (centres unmarked) [APV, 2-amino-5-phosphonovaleric acid]
- effect on [3H]Glu uptake by L-Glul cells [3]: without effect

Compound: COc1ccc2[nH]cc(CCNC(C)=O)c2c1 [N-Acetyl-5-methoxytryptamine, N-acetyl-5-methoxytryptamine]
- IC50 (Rat Synaptosomes): 66 µM

Compound: N[C@@H](CS)C(=O)O [L-cysteine]
- effect on D-[3H]Asp uptake by L-Aspl cells [1]: slight and not statistically significant

Compound: CCOC(=O)CC[C@H](N)C(=O)OCC [DEEG, glutamate diethylester]
- effect on D-[3H]Asp uptake by L-Aspl cells [1]: without effect

Compound: N[C@H](C(=O)O)c1cc(=O)[nH]o1 [ibotenic acid]
- effect on [3H]Glu uptake by L-Glul cells [3]: without effect

Compound: dihydroxykainate
- effect on D-[3H]Asp uptake by L-Aspl cells [1]: significant inhibition

Compound: N[C@@H](CS(=O)(=O)O)C(=O)O [cysteic acid]
- effect on [3H]Glu uptake by L-Glul cells [3]: only unlabelled L-glutamate seems to mediate some inhibition

Compound: CN[C@H](CC(=O)O)C(=O)O [NMDA, N-methyl-D-aspartic acid]
- effect on [3H]Glu uptake by L-Glul cells [3]: without effect
- effect on D-[3H]Asp uptake by L-Aspl cells [1]: without effect

Compound: N[C@H](CCC(=O)NCS(=O)(=O)O)C(=O)O [GAMS]
- effect on [3H]Glu uptake by L-Glul cells [3]: without effect

Compound: NC(CCCC(=O)O)C(=O)O (centres unmarked) [AAA, a-aminoadipic acid]
- effect on D-[3H]Asp uptake by L-Aspl cells [1]: virtually without inhibitory effect

Compound: O=C(O)[C@@H]1CCCN1 [proline]
- ligand-specificity of [3H]GABA uptake by L-GAB1 cells [2]: not sensitive

Compound: C[C@H](N)C(=O)O [L-alanine]
- ligand-specificity of [3H]GABA uptake by L-GAB1 cells [2]: somewhat sensitive

Compound: methyl-glutamylphosphonic acid [MGPA]
- effect on [3H]Glu uptake by L-Glul cells [3]: without effect

Compound: N[C@@H](Cc1ccccc1)C(=O)O [phenylalanine]
- effect of competing ligand on [3H]-5HT uptake, L-S1 [4, 6]: nor the amino acid substrates for catecholamine synthesis, phenylalanine and tyrosine, inhibited uptake of 5-HT
- effect of competing ligand on [3H]-5HT uptake, L-S2 [5, 6]: nor the amino acid substrates for catecholamine synthesis, phenylalanine and tyrosine, inhibited uptake of 5-HT
- ligand-specificity of [3H]GABA uptake by L-GAB1 cells [2]: not sensitive

Compound: N[C@H](CCS(=O)(=O)O)C(=O)O [D-homocysteic acid]
- effect on [3H]Glu uptake by L-Glul cells [3]: without effect

Compound: NCCS(=O)(=O)O [taurine]
- effect on [3H]Glu uptake by L-Glul cells [3]: only unlabelled L-glutamate seems to mediate some inhibition
- effect on D-[3H]Asp uptake by L-Aspl cells [1]: slight and not statistically significant

Compound: NC(CCP(=O)(O)O)C(=O)O (centres unmarked) [AP4, 2-amino-4-phosphonobutyric acid]
- effect on [3H]Glu uptake by L-Glul cells [3]: without effect

Compound: N[C@@H](CS(=O)O)C(=O)O [L-CSA, L-cysteine sulfinic acid]
- effect on D-[3H]Asp uptake by L-Aspl cells [1]: potent inhibitory effects

Compound: C=C(C)[C@H]1CN[C@H](C(=O)O)[C@H]1CC(=O)O [kainic acid]
- effect on [3H]Glu uptake by L-Glul cells [3]: without effect
- effect on D-[3H]Asp uptake by L-Aspl cells [1]: significant inhibition

Compound: N[C@@H](CO)C(=O)O [serine]
- ligand-specificity of [3H]GABA uptake by L-GAB1 cells [2]: not sensitive

Compound: CNC[C@H](O)c1ccc(O)c(O)c1 [epinephrine]
- ligand-specificity of [3H]GABA uptake by L-GAB1 cells [2]: not inhibited

Compound: NC[C@H](O)c1ccc(O)c(O)c1 [Norepinephrine, norepinephrine]
- effect on [3H]Glu uptake by L-Glul cells [3]: only unlabelled L-glutamate seems to mediate some inhibition
- ligand-specificity of [3H]GABA uptake by L-GAB1 cells [2]: not inhibited
- IC50 (Rat Synaptosomes): > 10 µM

Compound: NCCc1ccc(O)c(O)c1 [dopamine]
- effect on [3H]Glu uptake by L-Glul cells [3]: only unlabelled L-glutamate seems to mediate some inhibition

Compound: N[C@@H](CS(=O)(=O)O)C(=O)O [L-CA, L-cysteic acid]
- effect on D-[3H]Asp uptake by L-Aspl cells [1]: potent inhibitory effects

Compound: N[C@@H](Cc1ccc(O)cc1)C(=O)O [tyrosine]
- effect of competing ligand on [3H]-5HT uptake, L-S1 [4]: nor the amino acid substrates for catecholamine synthesis, phenylalanine and tyrosine, inhibited uptake of 5-HT
- effect of competing ligand on [3H]-5HT uptake, L-S2 [5]: nor the amino acid substrates for catecholamine synthesis, phenylalanine and tyrosine, inhibited uptake of 5-HT
- ligand-specificity of [3H]GABA uptake by L-GAB1 cells [2]: not sensitive
